Reference: US20120244079A1, “TRACEABLE RETINOID ACID FOR IMAGING, DISEASE PREVENTION AND THERAPY” (BAYLOR COLLEGE OF MEDICINE, priority 2009, published 2012)
“Also recorded” adds a separate entry of the source. Each block holds one compound with its values, some of them ahead of it.

Columns and labels:
[1] = tested on: human colon cancer (HT-29) cells; assay: Confocal microscopy cell binding/uptake; format: cell-based; conditions: 100 μm, 60 minutes at 37° C.
Experimental: (§1) The human colon (HT-29), nasal (CCL-30) and lung (A549) cancer cell lines were purchased from the American Type Culture Collection (ATCC, Manassas, Va.). Human osteosarcoma (F5M2, OS-9901, SOSP-S607, F4, CM319) and nasopharyngeal carcinoma cell lines (CNE-2) were generated in-house. The cells were cultured in Dulbecco's Modified Eagle Medium supplemented with high glucose and F12 nutrient (DMEM/F12, Invitrogen, Carlsbad, Calif.) with 10% fetal bovine serum (Hyclone, Logan, Utah) in a humidified incubator maintained at 37° C. with 5% CO2.
(§2) Cells were harvested, and the NIR-labeled retinoid agent or the free dye (100 μm) was added. The mixture was incubated for 60 minutes at 37° C. Cells were washed in PBS. Sytox Green in 95% ethanol was added, and cells were incubated for 15 minutes at 4° C. to fix them and stain their nuclei. Stained cells were then transferred to a slide and mounted for microscopic examination. Images were recorded by an Olympus confocal microscope. The microscope was equipped with an excitation (Ex) light source and emission (Em) filters to detect and separate the labeled retinoids (ex/em 785/810 nm) and cell nuclei (Ex/Em 488/510 nm) signals. Confocal image signals were recorded from one slice of a cell z-stack. Sytox green and NIR-labeled retinoid or NIR dye signals were pseudo-colored green (emission at 510 nm) and red (emission at 810 nm), respectively.
(§3) The uptake of NIR-labeled retinoid agent by human cancer cells was verified by confocal microscopy (FIG. 1A to 1H). […] The nuclear internalization was temperature-dependent (FIG. 1J and FIG. 1K). The signal intensity was stronger in cells incubated at 37° C. (FIG. 1I) than in those incubated at 4° C. (FIG. 1L) or the negative cells incubated at 37° C. (FIG. 1M, FIG. 1N, and FIG. 1O). These differences are statistically significant (FIG. 1P).

[2] = tested on: human lung cancer (A549) cells; assay: Confocal microscopy cell binding/uptake; format: cell-based; conditions: 100 μm, 60 minutes at 37° C.
Experimental: as §1, §2, §3

[3] = tested on: human nasopharyngeal cancer (CNE-2) cells; assay: Confocal microscopy cell binding/uptake; format: cell-based; conditions: 100 μm, 60 minutes at 37° C.
Experimental: as §1, §2, §3

[4] = tested on: human osteosarcoma F4 cells; assay: Confocal microscopy cell binding/uptake; format: cell-based; conditions: 100 μm, 60 minutes at 37° C.
Experimental: as §1, §2, §3

[5] = tested on: human osteosarcoma F5M2 cells; assay: Confocal microscopy cell binding/uptake; format: cell-based; conditions: 100 μm, 60 minutes at 37° C.
Experimental: as §1, §2, §3

[6] = tested on: human osteosarcoma OS-9901 cells; assay: Confocal microscopy cell binding/uptake; format: cell-based; conditions: 100 μm, 60 minutes at 37° C.
Experimental: as §1, §2, §3

[7] = tested on: human osteosarcoma SOSP-9607 cells; assay: Confocal microscopy cell binding/uptake; format: cell-based; conditions: 100 μm, 60 minutes at 37° C.
Experimental: as §1, §2, §3

[8] = tested on: F4 osteosarcoma tumor xenograft; assay: In vivo NIR imaging, side-by-side with free dye; design: species or system athymic nude mice; conditions: for clearance from the body, time: following the injection
Experimental: (§4) Four- to six-week-old male athymic nude mice (18-22 g) were housed and fed sterilized pellet chow and provided sterilized water. Animals were maintained in a pathogen-free mouse colony. The facility is accredited by the American Association for Laboratory Animal Care, and all experiments were performed in accordance with the guidelines of the Institutional Animal Care and Use Committee. Tumor cells were harvested near confluence by incubating them with 0.05% trypsin-EDTA. Cells were pelleted by centrifugation at 130×g for five minutes and resuspended in sterile phosphate-buffered saline (PBS). Tumors were induced in animals by subcutaneous injection of approximately one million tumor cells into the hind leg region of the mice. A total of 75 mice were used in this study.
(§5) The NIR-labeled retinoid agent was intraveneously (i.v.) injected into the tumor-bearing mice at a dose of 10 nmol for imaging. The animals were imaged from 1 to 9 days after the injection using an In-Vivo Multispectral System FX, a tandem (SPECT/CT) single photon emission computed tomography (SPECT) and computed tomography (CT) system and imaged with a positron emission tomography (PET) system.
Regions of interest were quantified from the in vitro and in vivo data using ImageJ (National Institutes of Health, USA). Data were analyzed using one-way (analysis of variance) ANOVA or general linear model (GLM). Data comparisons were illustrated in notched box-and-whisker plots. These plots provide the minimum, 25th percentile, median (central line), mean (+), 75th percentile and maximum.
The tumor mass was located in the left hind region of the mouse (FIG. 2A). There was no calcification of the tumor mass (FIG. 2B). […] To eliminate the potential well-established enhanced permeability and retention (EPR) effect of the imaging results, a side-by-side imaging comparison was performed to study and to directly compare the free dye (FIG. 2E to FIG. 2I) and compound 3 (FIG. 2J to FIG. 2M). The same intensity scale was used in this analysis. […] Finally, the merged free dye, RGD and CT images show the only high vasculature signal in the vicinity of the tumor (FIG. 2I). In contrast, the merged compound 3, RGD and CT images show both vasculature and RA (compound 3) signal intensity increases in the tumor region (FIG. 2N, yellow). All of the data were further analyzed at the animal population level.

CM319 osteosarcoma cells = assay: Confocal microscopy cell binding/uptake; format: cell-based, human
Experimental: as §1, §2

human cancer cells = assay: Confocal microscopy: effect of temperature and signal localisation; format: cell-based
Experimental: as §2, §3
The negative cells also show the minimum signal intensity (FIG. 1M and FIG. 1N).

[9] = tested on: human colon, lung, nasal cancer, and neuroblastoma xenografts; assay: In vivo NIR imaging of other xenografts; design: species or system athymic nude mice; conditions: across all four tumor xenografts
Experimental: as §4, §5
To confirm the findings in other cancer cell types, the RA agent was tested in human colon (FIG. 4A), lung (FIG. 4B), nasal (FIG. 4C) cancer, and neuroblastoma (FIG. 4 D) xenografts. […]

[10] = tested on: human colon cancer xenograft; assay: Tumor-to-muscle and liver-to-tumor ratios over time; format: in vivo, athymic nude mice; conditions: for signal in the liver versus background/muscle level: 14 days post-injection, single 18.4 μg injection
Experimental: as §4
as §5, with “The animals were imaged from 1 to 9 days after the injection using an In-Vivo Multispectral” left out
[…] […] The imaging agent was initially concentrated in the liver after the injection, but it gradually redistributed from the liver to the tumor over time. […] The maximum TMR (2.7) was reached 6 days post-injection in some animals, after which it started to decrease.

tumor xenograft = assay: Dose acceleration response (tumor-to-muscle ratio); format: in vivo, mice; conditions: injection dose increased from 0.03 to 0.125 mg, p>0.5270
Experimental: (§6) Tumor-bearing mice were divided into three groups for the dose acceleration study; they were injected with 0.03 mg, 0.06 mg, or 0.125 mg of the NIR-labeled retinoid agent that was equivalent to the non-labeled retinoid, respectively. The tumor-to-muscle ratio was calculated from the imaging data. The systemic toxicity was measured using control mice. The mice were treated with PBS (control), a low dose (0.1 mg/kg/week), or a dosage that was five times lower than that reported in published human clinical trials (0.6 mg/kg/week). The bodyweight was measured every other day, and the percentage gain in bodyweight was used as the toxicity indicator.
(§7) To test for a saturation effect of the target-specific biological agent, three groups of animal were injected with different doses of the retinoid agent. The tumor-to-muscle ratio was used to compare the dose response in the tumor. […] However, the higher dose was associated with a significant decrease in the gain of bodyweight (FIG. 7B).

[11] = Systemic toxicity by bodyweight gain; format: in vivo, mice
Experimental: as §6, §7

[12] = 30 mg/day, stage I and II head and neck cancer patients; cited from earlier work

optical signal in the animal ([8]; after 24 hours): completely undetectable | clearance from the body, time [8]: 24 h | clearance from the body, time ([8]; listed as free dye): ≤ 24 h
SMILES: CC1(C)C(=CC=C2CCCC(C=CC3=[N+](CCCCCC(=O)[O-])c4ccc(S(=O)(=O)[O-])cc4C3(C)C)=C2Oc2ccc(S(=O)(=O)[O-])cc2)N(CCCCS(=O)(=O)[O-])c2ccc(S(=O)(=O)[O-])cc21.[Na+].[Na+].[Na+].[Na+] [IRDye800CW, reference compound]
binding to cells (NIR signal, confocal image) [1]: no detectable signal | binding to cells (NIR signal, confocal image) [2]: no detectable signal | binding to cells (NIR signal, confocal image) [3]: no detectable signal | binding to cells (NIR signal, confocal image) [4]: no detectable signal | binding to cells (NIR signal, confocal image) [5]: no detectable signal | binding to cells (NIR signal, confocal image) [6]: no detectable signal | binding to cells (NIR signal, confocal image) [7]: no detectable signal | signal intensity (TBR), IRDye800CW group vs RA group ([8]; after 24 hours, P<0.0001): significantly lower

signal intensity in the liver and tumor ([8]; 72 hours post-injection): high signal intensity | liver-to-tumor ratio relative to tumor-to-muscle ratio ([10]; 1 day post-injection): almost twice as high | signal in the liver versus background/muscle level ([10]; listed as NIR-labeled retinoid agent): still higher than the background level | signal in the liver versus background/muscle level ([10]; listed as retinoid analog imaging agent): had not returned to the muscle level | time at which liver-to-tumor and tumor-to-muscle ratios intersected ([10]; post-injection): 3 days
SMILES: CC1=C(/C=C/C(C)=C/C=C/C(C)=C/C(=O)NCCCCCCNC(=O)CCCCCN2/C(=C/C=C3\CCCC(/C=C/C4=[N+](CCCCS(=O)(=O)O)c5ccc(S(=O)(=O)O)cc5C4(C)C)=C3Oc3ccc(S(=O)(=O)O)cc3)C(C)(C)c3cc(S(=O)(=O)O)ccc32)C(C)(C)CCC1 [compound 3, RA-HN(CH2)6NH—IRdye 800]
binding to cells (NIR signal, confocal image) [1]: bound | binding to cells (NIR signal, confocal image) [2]: bound | binding to cells (NIR signal, confocal image) [3]: bound | binding to cells (NIR signal, confocal image) [4]: bound | binding to cells (NIR signal, confocal image) [5]: bound | binding to cells (NIR signal, confocal image) [6]: bound | binding to cells (NIR signal, confocal image) [7]: bound | binding to cells (CM319 osteosarcoma cells): strongly binds to all the tested human cancer cell lines except CM319 osteosarcoma cells | binding when incubated at 4° C. (human cancer cells; 4° C.): minimum binding | signal intensity in cells incubated at 37° C. versus 4° C. or negative cells (human cancer cells; 37° C. vs 4° C., statistically significant, listed as NIR-labeled retinoid agent): stronger; also recorded: higher signal intensity was observed at 37 °C than at 4 °C | localisation of retinoid signal in cells (human cancer cells; 37° C., confocal, listed as NIR-labeled retinoid agent): not only detected in the cytoplasm but also in the nuclei; also recorded: localizes to the cell membrane and cytoplasm | tumor-to-background ratio (TBR) ([8]; 72 hours post-injection, single animal): 2.76 | signal intensity (TBR), IRDye800CW group vs RA group ([8]; within the first 24 hours, P=0.6088): no statistically significant difference | tumor-to-background ratio [9]: 2.15 to 2.74 | maximum tumor-to-muscle ratio (TMR) ([10]; single injection 18.4 μg per 25 grams of bodyweight, some animals): 2.7 | tumor-to-muscle ratio, dose response (tumor xenograft; listed as imaging agent): no statistically significant difference | tumor-to-muscle ratio, dose response (tumor xenograft; listed as retinoid agent): no significant difference | percentage of bodyweight gain vs untreated control and low dose group ([11]; high dose 0.6 mg/kg/week, p=0.0003 vs control, p=0.0001 vs low dose): significantly lower | percentage of bodyweight gain vs control group ([11]; low dose 0.1 mg/kg/week, p=0.0519): no differences

SMILES: CC1=C(/C=C/C(C)=C/C=C/C(C)=C\C(=O)O)C(C)(C)CCC1 [retinoid, isotretinoin]
patients developing adverse effects [12]: 49.7%
